In US9695155B2, “Herbicidal substituted pyrimidinyloxy benzene compounds” (E. I. DU PONT DE NEMOURS AND COMPANY, priority 2013, dated 2017):

Legend:
[1] = test system: wheat; experiment: Test A postemergence; format: in vivo, Triticum aestivum
Summary of the method: (§1)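 Injury scores run from 0, no effect, to 100, complete control, judged by eye against untreated plants roughly 10 days after treatment. Chemicals carried a surfactant in a non-phytotoxic solvent and went onto loam–sand soil preemergence or onto one- to two-leaf seedlings postemergence.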

[2] = test system: pigweed; experiment: Test A preemergence; format: in vivo, Amaranthus retroflexus; settings: for Plant response rating, Pigweed / Pigweed plant response rating: 0 to 100 scale where 0 is no effect and 100 is complete control; for Pigweed plant response rating: 500 g ai/ha
Summary of the method: as §1

[3] = test system: barnyardgrass; experiment: Test A preemergence; format: in vivo, Echinochloa crus-galli; settings: for Plant response rating, Barnyardgrass / Barnyardgrass plant response rating: 0 to 100 scale where 0 is no effect and 100 is complete control; for Barnyardgrass plant response rating: 500 g ai/ha
Summary of the method: as §1

[4] = test system: giant foxtail; experiment: Test A preemergence; format: in vivo, Setaria faberii; settings: for Plant response rating, Foxtail, Giant / Foxtail, Giant plant response rating: 0 to 100 scale where 0 is no effect and 100 is complete control; for Foxtail, Giant plant response rating: 500 g ai/ha
Summary of the method: as §1

[5] = test system: rice; experiment: Test B flooded paddy test; format: in vivo, Oryza sativa; settings: Flood, 250 g ai/ha; 0 to 100 scale where 0 is no effect and 100 is complete control
Summary of the method: (§2)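 Post-emergence paddy-water application at the 2-leaf stage, with 3 cm flood kept for the whole test. Response was judged visually relative to controls after 13 to 15 greenhouse days, 0 indicating no effect and 100 complete control.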

[6] = test system: barnyardgrass; experiment: Test B flooded paddy test; format: in vivo, Echinochloa crus-galli; settings: Flood, 250 g ai/ha; 0 to 100 scale where 0 is no effect and 100 is complete control
Summary of the method: as §2

[7] = test system: ragweed; experiment: Test A postemergence; format: in vivo, Ambrosia elatior
Summary of the method: as §1

[8] = test system: kochia; experiment: Test A preemergence; format: in vivo, Kochia scoparia; settings: for Plant response rating, Kochia / Kochia plant response rating: 0 to 100 scale where 0 is no effect and 100 is complete control; for Kochia plant response rating: 500 g ai/ha
Summary of the method: as §1

[9] = test system: Heteranthera limosa; experiment: Test B flooded paddy test; format: in vivo; settings: Flood, 250 g ai/ha; 0 to 100 scale where 0 is no effect and 100 is complete control
Summary of the method: as §2

[10] = test system: Italian ryegrass; experiment: Test A preemergence; format: in vivo, Lolium multiflorum; settings: for Plant response rating, Ryegrass, Italian / Ryegrass, Italian plant response rating: 0 to 100 scale where 0 is no effect and 100 is complete control; for Ryegrass, Italian plant response rating: 500 g ai/ha
Summary of the method: as §1

[11] = test system: kochia; experiment: Test A postemergence; format: in vivo, Kochia scoparia
Summary of the method: as §1

[12] = test system: barnyardgrass; experiment: Test A postemergence; format: in vivo, Echinochloa crus-galli
Summary of the method: as §1

[13] = test system: galium; experiment: Test A postemergence; format: in vivo, Galium aparine
Summary of the method: as §1

[14] = test system: pigweed; experiment: Test A postemergence; format: in vivo, Amaranthus retroflexus
Summary of the method: as §1

[15] = test system: Italian ryegrass; experiment: Test A postemergence; format: in vivo, Lolium multiflorum
Summary of the method: as §1

[16] = test system: giant foxtail; experiment: Test A postemergence; format: in vivo, Setaria faberii
Summary of the method: as §1

[17] = test system: ragweed; experiment: Test A preemergence; format: in vivo, Ambrosia elatior; settings: for Plant response rating, Ragweed / Ragweed plant response rating: 0 to 100 scale where 0 is no effect and 100 is complete control; for Ragweed plant response rating: 500 g ai/ha
Summary of the method: as §1

[18] = test system: sedge, umbrella; experiment: Test B flooded paddy test; format: in vivo, Cyperus difformis; settings: Flood, 250 g ai/ha; 0 to 100 scale where 0 is no effect and 100 is complete control
Summary of the method: as §2

[19] = test system: blackgrass; experiment: Test A postemergence; format: in vivo, Alopecurus myosuroides
Summary of the method: as §1

[20] = test system: corn; experiment: Test A postemergence; format: in vivo, Zea mays
Summary of the method: as §1

[21] = 125 g ai/ha, 0 to 100 scale where 0 is no effect and 100 is complete control
[22] = 500 g ai/ha, 0 to 100 scale where 0 is no effect and 100 is complete control
[23] = 31 g ai/ha, 0 to 100 scale, 0 no effect, 100 complete control
[24] = 125 g ai/ha, 0 to 100 scale, 0 no effect, 100 complete control
[25] = 31 g ai/ha, visual, approximately 10 days

## CC(F)c1cccc(Oc2ncc(Cl)cn2)c1-n1cc(Br)cn1 (stereo not drawn) [Compound 146]
[1]; [21]
  Wheat plant response rating: 0
[1]; [22]
  Plant response rating, Wheat: 0
[2]; 125 g ai/ha
  Plant response rating, Pigweed: 60
[2]
  Pigweed plant response rating: 100
[3]; 125 g ai/ha
  Plant response rating, Barnyardgrass: 20
[3]
  Barnyardgrass plant response rating: 90
[4]; 125 g ai/ha
  Plant response rating, Foxtail, Giant: 70
[4]
  Foxtail, Giant plant response rating: 100
[5]
  Plant response rating, Rice: 0
[6]
  Plant response rating, Barnyardgrass: 20
[7]; [21]
  Ragweed plant response rating: 10
[7]; [22]
  Plant response rating, Ragweed: 10
[8]; 125 g ai/ha
  Plant response rating, Kochia: 40
[8]
  Kochia plant response rating: 100
[9]
  Plant response rating, Ducksalad: 40
[10]; 125 g ai/ha
  Plant response rating, Ryegrass, Italian: 0
[10]
  Ryegrass, Italian plant response rating: 50
[11]; [21]
  Kochia plant response rating: 70
[11]; [22]
  Plant response rating, Kochia: 100
[12]; [21]
  Barnyardgrass plant response rating: 10
[12]; [22]
  Plant response rating, Barnyardgrass: 60
[13]; [21]
  Galium plant response rating: 50
[13]; [22]
  Plant response rating, Galium: 100
[14]; [21]
  Pigweed plant response rating: 100
[14]; [22]
  Plant response rating, Pigweed: 100
[15]; [21]
  Ryegrass, Italian plant response rating: 0
[15]; [22]
  Plant response rating, Ryegrass, Italian: 40
[16]; [21]
  Foxtail, Giant plant response rating: 20
[16]; [22]
  Plant response rating, Foxtail, Giant: 80
[17]; 125 g ai/ha
  Plant response rating, Ragweed: 0
[17]
  Ragweed plant response rating: 100
[18]
  Plant response rating, Sedge, Umbrella: 40
[19]; [21]
  Blackgrass plant response rating: 20
[19]; [22]
  Plant response rating, Blackgrass: 70
[20]; [21]
  Corn plant response rating: 10
[20]; [22]
  Plant response rating, Corn: 30

## N#Cc1cnn(-c2c(CF)cccc2Oc2ncc(Br)cn2)c1 [Compound 243]
[1]; [23]
  Plant response rating, Wheat: 0
[1]; [24]
  Plant response rating, Wheat: 20
[2]; [25]
  Plant response rating, Pigweed: 0
[2]; 125 g ai/ha
  Pigweed plant response rating (0 to 100 scale): 80
[3]; [25]
  Plant response rating, Barnyardgrass: 0
[3]; 125 g ai/ha
  Barnyardgrass plant response rating (0 to 100 scale, 0 is no effect, 100 is complete control): 30
[4]; [25]
  Plant response rating, Foxtail, Giant: 0
[4]; 125 g ai/ha
  Foxtail, Giant plant response rating (0 to 100 scale): 100
[5]
  Plant response rating, Rice: 0
[6]
  Plant response rating, Barnyardgrass: 0
[7]; [23]
  Plant response rating, Ragweed: 20
[7]; [24]
  Plant response rating, Ragweed: 20
[8]; [25]
  Plant response rating, Kochia: 0
[8]; 125 g ai/ha
  Kochia plant response rating (0 to 100 scale): 90
[9]
  Plant response rating, Ducksalad: 30
[10]; [25]
  Plant response rating, Ryegrass, Italian: 0
[10]; 125 g ai/ha
  Ryegrass, Italian plant response rating (0 to 100 scale): 0
[11]; [23]
  Plant response rating, Kochia: 20
[11]; [24]
  Plant response rating, Kochia: 30
[12]; [23]
  Plant response rating, Barnyardgrass: 0
[12]; [24]
  Plant response rating, Barnyardgrass: 0
[13]; [23]
  Plant response rating, Galium: 0
[13]; [24]
  Plant response rating, Galium: 10
[14]; [23]
  Plant response rating, Pigweed: 10
[14]; [24]
  Plant response rating, Pigweed: 20
[15]; [23]
  Plant response rating, Ryegrass, Italian: 0
[15]; [24]
  Plant response rating, Ryegrass, Italian: 0
[16]; [23]
  Plant response rating, Foxtail, Giant: 0
[16]; [24]
  Plant response rating, Foxtail, Giant: 10
[17]; [25]
  Plant response rating, Ragweed: 0
[17]; 125 g ai/ha
  Ragweed plant response rating (0 to 100 scale): 20
[18]
  Plant response rating, Sedge, Umbrella: 0
[19]; [23]
  Plant response rating, Blackgrass: 0
[19]; [24]
  Plant response rating, Blackgrass: 30
[20]; [23]
  Plant response rating, Corn: 0
[20]; [24]
  Plant response rating, Corn: 0

## CC(C)c1cnc(Oc2cccc(C#N)c2-n2cc(Br)cn2)nc1 [Compound 130]
[1]; [21]
  Wheat plant response rating: 0
[1]; [22]
  Plant response rating, Wheat: 0
[2]; 125 g ai/ha
  Plant response rating, Pigweed: 0
[2]
  Pigweed plant response rating: 0
[3]; 125 g ai/ha
  Plant response rating, Barnyardgrass: 0
[3]
  Barnyardgrass plant response rating: 0
[4]; 125 g ai/ha
  Plant response rating, Foxtail, Giant: 0
[4]
  Foxtail, Giant plant response rating: 0
[5]
  Plant response rating, Rice: 0
[6]
  Plant response rating, Barnyardgrass: 0
[7]; [21]
  Ragweed plant response rating: 0
[7]; [22]
  Plant response rating, Ragweed: 0
[8]; 125 g ai/ha
  Plant response rating, Kochia: 0
[8]
  Kochia plant response rating: 0
[9]
  Plant response rating, Ducksalad: 0
[10]; 125 g ai/ha
  Plant response rating, Ryegrass, Italian: 0
[10]
  Ryegrass, Italian plant response rating: 0
[11]; [21]
  Kochia plant response rating: 0
[11]; [22]
  Plant response rating, Kochia: 0
[12]; [21]
  Barnyardgrass plant response rating: 0
[12]; [22]
  Plant response rating, Barnyardgrass: 0
[13]; [21]
  Galium plant response rating: 0
[13]; [22]
  Plant response rating, Galium: 0
[14]; [21]
  Pigweed plant response rating: 0
[14]; [22]
  Plant response rating, Pigweed: 0
[15]; [21]
  Ryegrass, Italian plant response rating: 0
[15]; [22]
  Plant response rating, Ryegrass, Italian: 0
[16]; [21]
  Foxtail, Giant plant response rating: 0
[16]; [22]
  Plant response rating, Foxtail, Giant: 0
[17]; 125 g ai/ha
  Plant response rating, Ragweed: 0
[17]
  Ragweed plant response rating: 0
[18]
  Plant response rating, Sedge, Umbrella: 0
[19]; [21]
  Blackgrass plant response rating: 0
[19]; [22]
  Plant response rating, Blackgrass: 0
[20]; [21]
  Corn plant response rating: 0
[20]; [22]
  Plant response rating, Corn: 0

## FC(F)(F)Sc1cnn(-c2ccccc2Oc2ncc(Br)cn2)c1 [Compound 246]
[1]; [23]
  Plant response rating, Wheat: 0
[1]; [24]
  Plant response rating, Wheat: 0
[2]; [25]
  Plant response rating, Pigweed: 0
[2]; 125 g ai/ha
  Pigweed plant response rating (0 to 100 scale): 20
[3]; [25]
  Plant response rating, Barnyardgrass: 0
[3]; 125 g ai/ha
  Barnyardgrass plant response rating (0 to 100 scale, 0 is no effect, 100 is complete control): 30
[4]; [25]
  Plant response rating, Foxtail, Giant: 0
[4]; 125 g ai/ha
  Foxtail, Giant plant response rating (0 to 100 scale): 70
[5]
  Plant response rating, Rice: 0
[6]
  Plant response rating, Barnyardgrass: 0
[7]; [23]
  Plant response rating, Ragweed: 0
[7]; [24]
  Plant response rating, Ragweed: 0
[8]; [25]
  Plant response rating, Kochia: 0
[8]; 125 g ai/ha
  Kochia plant response rating (0 to 100 scale): 0
[9]
  Plant response rating, Ducksalad: 0
[10]; [25]
  Plant response rating, Ryegrass, Italian: 0
[10]; 125 g ai/ha
  Ryegrass, Italian plant response rating (0 to 100 scale): 0
[11]; [23]
  Plant response rating, Kochia: 20
[11]; [24]
  Plant response rating, Kochia: 70
[12]; [23]
  Plant response rating, Barnyardgrass: 0
[12]; [24]
  Plant response rating, Barnyardgrass: 0
[13]; [23]
  Plant response rating, Galium: 20
[13]; [24]
  Plant response rating, Galium: 70
[14]; [23]
  Plant response rating, Pigweed: 20
[14]; [24]
  Plant response rating, Pigweed: 40
[15]; [23]
  Plant response rating, Ryegrass, Italian: 0
[15]; [24]
  Plant response rating, Ryegrass, Italian: 0
[16]; [23]
  Plant response rating, Foxtail, Giant: 0
[16]; [24]
  Plant response rating, Foxtail, Giant: 0
[17]; [25]
  Plant response rating, Ragweed: 0
[17]; 125 g ai/ha
  Ragweed plant response rating (0 to 100 scale): 0
[18]
  Plant response rating, Sedge, Umbrella: 0
[19]; [23]
  Plant response rating, Blackgrass: 0
[19]; [24]
  Plant response rating, Blackgrass: 0
[20]; [23]
  Plant response rating, Corn: 0
[20]; [24]
  Plant response rating, Corn: 20
